Data as given in ChEMBL document CHEMBL4371015, “Synthesis and biological evaluation of bifendate derivatives bearing acrylamide moiety as novel antioxidant agents” (Eur J Med Chem, 2019).
Values belong to the molecule of their own block, whether it stands above or below them. The source made the active and inactive calls. The calls are words filed in the database; no cut-off is given here.

Tests used:
HBZY-1 [1] = experiment: Cytotoxicity against rat HBZY-1 cells assessed as decrease in cell viability after 72 hrs by MTT assay; format: cell-based; conditions: HBZY-1, 72 h
HBZY-1 [2] = experiment: Cytoprotection against H2O2-induced cell death in rat HBZY-1 cells assessed as increase in cell viability at 6 uM preincubated for 2 hrs with 3 nM ZNPP prior to compound addition followed by 2 hrs incubation before H2O2 addition and measured after 24 hrs by MTT assay; format: functional, cell-based
HBZY-1 [3] = experiment: Cytotoxicity against rat HBZY-1 cells assessed as decrease in cell viability up to 200 uM after 72 hrs by MTT assay; format: cell-based; conditions: hbzy-1, 72 h
HBZY-1 [4] = experiment: Cytoprotection against H2O2-induced cell death in rat HBZY-1 cells assessed as increase in cell viability at 6 uM preincubated for 2 hrs with 6 nM ZNPP prior to compound addition followed by 2 hrs incubation before H2O2 addition and measured after 24 hrs by MTT assay; format: functional, cell-based
[5] = biological target: T1, Keap1/Nrf2 (Homo sapiens) (UniProt Q16236+Q14145); experiment: Induction of Keap1/Nrf2 (unknown origin) interaction assessed as reduction in Nfr2 level in absence of DTT by Western blot analysis; format: protein assay
T1 sequence (Q14145 whole entry, looked up, one chain of several): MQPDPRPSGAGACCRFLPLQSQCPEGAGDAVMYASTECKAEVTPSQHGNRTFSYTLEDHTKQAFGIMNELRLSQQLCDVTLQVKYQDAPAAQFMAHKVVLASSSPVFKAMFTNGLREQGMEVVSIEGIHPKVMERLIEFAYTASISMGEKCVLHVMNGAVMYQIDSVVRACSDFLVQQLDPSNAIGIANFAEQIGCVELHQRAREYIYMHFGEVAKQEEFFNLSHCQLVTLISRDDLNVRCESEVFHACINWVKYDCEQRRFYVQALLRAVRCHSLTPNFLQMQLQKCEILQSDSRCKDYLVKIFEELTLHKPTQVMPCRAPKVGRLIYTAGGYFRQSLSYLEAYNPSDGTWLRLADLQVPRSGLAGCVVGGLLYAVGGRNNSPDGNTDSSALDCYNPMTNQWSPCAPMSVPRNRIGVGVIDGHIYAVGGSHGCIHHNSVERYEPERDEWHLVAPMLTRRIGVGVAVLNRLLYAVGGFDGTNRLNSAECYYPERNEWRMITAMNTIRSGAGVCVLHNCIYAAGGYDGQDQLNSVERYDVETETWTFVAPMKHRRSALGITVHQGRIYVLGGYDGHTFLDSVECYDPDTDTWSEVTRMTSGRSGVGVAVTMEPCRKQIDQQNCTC

[6] = biological target: T1, Keap1/Nrf2 (Homo sapiens); experiment: Induction of Keap1/Nrf2 (unknown origin) interaction assessed as increase in Nfr2 level in presence of DTT by Western blot analysis; format: protein assay
HBZY-1 [7] = experiment: Cytoprotection against H2O2-induced cell death in rat HBZY-1 cells assessed as increase in cell viability at 6 uM preincubated for 2 hrs with 20 nM BSO prior to compound addition followed by 2 hrs incubation before H2O2 addition and measured after 24 hrs by MTT assay; format: functional, cell-based
HBZY-1 [8] = experiment: Cytoprotection against H2O2-induced cell death in rat HBZY-1 cells assessed as increase in cell viability at 6 uM pre-incubated for 2 hrs with 100 nM TRG prior to compound addition followed by 2 hrs incubation before H2O2 addition and measured after 24 hrs by MTT assay; format: functional, cell-based
[9] = biological target: T1, Keap1/Nrf2 (Homo sapiens); experiment: Induction of Keap1/Nrf2 (unknown origin) interaction assessed as reduction in Nfr2 level in presence of DTT by Western blot analysis; format: protein assay
HBZY-1 [10] = experiment: Cytoprotection against H2O2-induced cell death in rat HBZY-1 cells assessed as increase in cell viability at 6 uM preincubated for 2 hrs with 200 nM TRG prior to compound addition followed by 2 hrs incubation before H2O2 addition and measured after 24 hrs by MTT assay; format: functional, cell-based
HBZY-1 [11] = experiment: Antioxidant activity in rat HBZY-1 cells assessed as inhibition of H2O2-induced ROS accumulation […] for 12 hrs followed by H2O2 addition and measured after 3 hrs by DCFHA-DA/FITC staining-based FACS analysis; format: functional, cell-based
[12] = biological target: T2, Nuclear factor erythroid 2-related factor 2 (Homo sapiens) (UniProt Q16236); experiment: Activation of Nrf2 (unknown origin) expressed in HEK293 cells after 16 hrs by luciferase reporter gene assay; format: cell-based
T2 sequence (whole entry): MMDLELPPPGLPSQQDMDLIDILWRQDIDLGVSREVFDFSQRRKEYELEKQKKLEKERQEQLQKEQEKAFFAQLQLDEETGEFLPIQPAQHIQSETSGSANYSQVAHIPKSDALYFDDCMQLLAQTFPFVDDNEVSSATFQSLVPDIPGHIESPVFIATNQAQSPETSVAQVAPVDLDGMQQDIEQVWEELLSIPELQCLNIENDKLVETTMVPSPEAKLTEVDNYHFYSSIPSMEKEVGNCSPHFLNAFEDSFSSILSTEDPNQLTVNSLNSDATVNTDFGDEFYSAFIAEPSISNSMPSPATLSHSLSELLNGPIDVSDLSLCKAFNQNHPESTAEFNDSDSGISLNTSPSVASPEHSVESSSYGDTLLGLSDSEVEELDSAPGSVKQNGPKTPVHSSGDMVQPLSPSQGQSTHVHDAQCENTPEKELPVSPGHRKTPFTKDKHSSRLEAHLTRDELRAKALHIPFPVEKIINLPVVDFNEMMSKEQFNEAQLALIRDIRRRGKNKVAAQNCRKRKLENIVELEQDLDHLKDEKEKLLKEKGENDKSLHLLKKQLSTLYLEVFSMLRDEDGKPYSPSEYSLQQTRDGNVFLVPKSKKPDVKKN

HBZY-1 [13] = experiment: Cytoprotection against H2O2-induced cell death in rat HBZY-1 cells assessed as increase in cell viability at 6 uM preincubated for 2 hrs with 10 nM BSO prior to compound addition followed by 2 hrs incubation before H2O2 addition and measured after 24 hrs by MTT assay; format: functional, cell-based
HBZY-1 [14] = experiment: Cytoprotection against H2O2-induced cell death in rat HBZY-1 cells assessed as cell viability at 6 uM preincubated for 2 hrs followed by H2O2 addition and measured after 24 hrs by MTT assay (reference value: 62.1%); format: functional; conditions: read-out: Activity
HBZY-1 [15] = experiment: Cytoprotection against H2O2-induced cell death in rat HBZY-1 cells assessed as increase in cell viability preincubated for 2 hrs followed by H2O2 addition and measured after 24 hrs by MTT assay; format: functional, cell-based
[16] = biological target: T1, Keap1/Nrf2 (Homo sapiens); experiment: Induction of Keap1/Nrf2 (unknown origin) interaction assessed as increase in Nfr2 level in absence of DTT by Western blot analysis; format: protein assay
[17] = biological target: T3, Nuclear factor erythroid 2-related factor 2 (Rattus norvegicus) (UniProt O54968); experiment: Activation of Nrf2 in rat HBZY-1 cells assessed as increase in HO-1 level at 6 uM by Western blot analysis; format: cell-based
T3 sequence (whole entry): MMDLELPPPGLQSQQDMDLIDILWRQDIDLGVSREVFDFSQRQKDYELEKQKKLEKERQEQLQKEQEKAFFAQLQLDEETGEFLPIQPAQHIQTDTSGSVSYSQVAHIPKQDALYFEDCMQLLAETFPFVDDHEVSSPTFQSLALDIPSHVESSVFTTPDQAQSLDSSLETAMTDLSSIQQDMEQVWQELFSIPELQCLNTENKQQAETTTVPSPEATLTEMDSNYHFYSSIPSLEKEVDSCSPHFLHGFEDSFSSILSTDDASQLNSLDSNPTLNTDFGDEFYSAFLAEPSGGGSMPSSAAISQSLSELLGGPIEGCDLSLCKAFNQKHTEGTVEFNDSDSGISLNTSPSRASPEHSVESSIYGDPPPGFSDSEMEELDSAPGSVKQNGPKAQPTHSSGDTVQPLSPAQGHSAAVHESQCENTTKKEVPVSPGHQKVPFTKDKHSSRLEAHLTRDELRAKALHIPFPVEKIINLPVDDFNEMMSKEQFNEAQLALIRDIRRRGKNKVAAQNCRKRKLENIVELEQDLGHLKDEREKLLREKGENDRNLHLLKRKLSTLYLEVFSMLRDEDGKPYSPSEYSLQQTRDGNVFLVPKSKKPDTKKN

[18] = biological target: T3, Nuclear factor erythroid 2-related factor 2 (Rattus norvegicus); experiment: Activation of Nrf2 in rat HBZY-1 cells assessed as increase in GCLM mRNA expression at 6 uM after 24 hrs by RT-PCR analysis; format: cell-based
[19] = biological target: T3, Nuclear factor erythroid 2-related factor 2 (Rattus norvegicus); experiment: Activation of Nrf2 in rat HBZY-1 cells assessed as increase in GCLC mRNA expression at 6 uM after 24 hrs by RT-PCR analysis; format: cell-based
[20] = biological target: T3, Nuclear factor erythroid 2-related factor 2 (Rattus norvegicus); experiment: Activation of Nrf2 in rat HBZY-1 cells assessed as increase in NQO-1 mRNA expression at 6 uM after 24 hrs by RT-PCR analysis; format: cell-based
[21] = biological target: T3, Nuclear factor erythroid 2-related factor 2 (Rattus norvegicus); experiment: Activation of Nrf2 in rat HBZY-1 cells assessed as increase in NQO-1 level at 6 uM by Western blot analysis; format: cell-based
[22] = biological target: T3, Nuclear factor erythroid 2-related factor 2 (Rattus norvegicus); experiment: Activation of Nrf2 in rat HBZY-1 cells assessed as increase in GCLC level at 6 uM by Western blot analysis; format: cell-based
[23] = biological target: T3, Nuclear factor erythroid 2-related factor 2 (Rattus norvegicus); experiment: Activation of Nrf2 in rat HBZY-1 cells assessed as increase in GCLM level at 6 uM by Western blot analysis; format: cell-based
[24] = biological target: T3, Nuclear factor erythroid 2-related factor 2 (Rattus norvegicus); experiment: Activation of Nrf2 in rat HBZY-1 cells assessed as increase in HO-1 mRNA expression at 6 uM after 24 hrs by RT-PCR analysis; format: cell-based
HBZY-1 [25] = experiment: Cytoprotection against H2O2-induced cell death in rat HBZY-1 cells assessed as increase in cell viability at 6 uM preincubated for 2 hrs followed by H2O2 addition and measured after 24 hrs by MTT assay; format: functional, cell-based
HBZY-1 [26] = experiment: Cytoprotection against H2O2-induced cell death in rat HBZY-1 cells assessed as cell viability at 100 uM preincubated for 2 hrs followed by H2O2 addition and measured after 24 hrs by MTT assay (reference value: 62.1%); format: functional; conditions: read-out: Activity

Structure (SMILES): COC(=O)c1cc(OC)c2c(c1-c1c(/C=C/C(=O)Nc3ccc(OC)c(OC)c3)cc(OC)c3c1OCO3)OCO2
IC50 (HBZY-1 [1]): > 200 µM

Activity [5]: Active | inhibition [6]: inactive | inhibition [9]: inactive | Activity [12]: Dose-dependent effect | Activity [16]: Active
Structure (SMILES): COC(=O)c1cc(OC)c2c(c1-c1c(/C=C(\C#N)C(=O)Nc3ccc(OC)cc3)cc(OC)c3c1OCO3)OCO2
Activity (HBZY-1 [2]): inactive | Activity (HBZY-1 [3]): Non-Toxic | Activity (HBZY-1 [4]): inactive | IC50 (HBZY-1 [1]): > 200 µM | Activity (HBZY-1 [7]): inactive | Activity (HBZY-1 [8]): inactive | Activity (HBZY-1 [10]): inactive | inhibition (HBZY-1 [11]): Dose-dependent effect | Activity (HBZY-1 [13]): inactive | viability at 6 µM (HBZY-1 [14]): 97.2% | Activity (HBZY-1 [15]): Dose-dependent effect

Structure (SMILES): COC(=O)c1cc(OC)c2c(c1-c1c(/C=C(\C#N)C(=O)Nc3ccc(OC)c(OC)c3)cc(OC)c3c1OCO3)OCO2
IC50 (HBZY-1 [1]): > 200 µM

Activity [17]: Active | Activity [18]: Active | Activity [19]: Active | Activity [20]: Active | Activity [21]: Active | Activity [22]: Active | Activity [23]: Active | Activity [24]: Active
Structure (SMILES): Oc1ccc(/C=C/c2cc(O)cc(O)c2)cc1

Structure (SMILES): COC(=O)c1cc(OC)c2c(c1-c1c(/C=C/C(=O)Nc3cc(OC)c(OC)c(OC)c3)cc(OC)c3c1OCO3)OCO2
IC50 (HBZY-1 [1]): > 200 µM

Structure (SMILES): COC(=O)c1cc(OC)c2c(c1-c1c(/C=C(\C#N)C(=O)Nc3ccccc3OC)cc(OC)c3c1OCO3)OCO2
Activity (HBZY-1 [3]): Toxic | IC50 (HBZY-1 [1]): > 200 µM | viability at 6 µM (HBZY-1 [14]): 99.2% | Activity (HBZY-1 [15]): Dose-dependent effect

Structure (SMILES): COC(=O)c1cc(OC)c2c(c1-c1c(/C=C(\C#N)C(=O)NCc3ccc(OC)cc3)cc(OC)c3c1OCO3)OCO2
IC50 (HBZY-1 [1]): > 200 µM

Structure (SMILES): COC(=O)c1cc(OC)c2c(c1-c1c(/C=C/C(=O)Nc3ccc(OC)cc3)cc(OC)c3c1OCO3)OCO2
IC50 (HBZY-1 [1]): > 200 µM

Structure (SMILES): CCCCNC(=O)/C=C/c1cc(OC)c2c(c1-c1c(C(=O)OC)cc(OC)c3c1OCO3)OCO2
IC50 (HBZY-1 [1]): > 200 µM

Structure (SMILES): CCCCNC(=O)/C(C#N)=C/c1cc(OC)c2c(c1-c1c(C(=O)OC)cc(OC)c3c1OCO3)OCO2
IC50 (HBZY-1 [1]): > 200 µM | viability at 6 µM (HBZY-1 [14]): 95.3%

Structure (SMILES): COC(=O)c1cc(OC)c2c(c1-c1c(/C=C/C(=O)NCCc3ccc(OC)c(OC)c3)cc(OC)c3c1OCO3)OCO2
IC50 (HBZY-1 [1]): > 200 µM

Structure (SMILES): COC(=O)c1cc(OC)c2c(c1-c1c(/C=C/C(=O)NCc3ccc(OC)cc3)cc(OC)c3c1OCO3)OCO2
IC50 (HBZY-1 [1]): > 200 µM

Structure (SMILES): COc1ccccc1NC(=O)/C(C#N)=C/c1cc(OC)c(OC)c(OC)c1
IC50 (HBZY-1 [1]): > 200 µM | Activity (HBZY-1 [25]): inactive

Structure (SMILES): COC(=O)c1cc(OC)c2c(c1-c1c(C(=O)OC)cc(OC)c3c1OCO3)OCO2 [BIFENDATE]
viability at 100 µM (HBZY-1 [26]): 89.8% | viability at 6 µM (HBZY-1 [14]): 66.1%

Structure (SMILES): COC(=O)c1cc(OC)c2c(c1-c1c(/C=C(\C#N)C(=O)Nc3cc(OC)c(OC)c(OC)c3)cc(OC)c3c1OCO3)OCO2
IC50 (HBZY-1 [1]): > 200 µM

Structure (SMILES): COC(=O)c1cc(OC)c2c(c1-c1c(/C=C/C(=O)Nc3ccccc3OC)cc(OC)c3c1OCO3)OCO2
IC50 (HBZY-1 [1]): > 200 µM | viability at 6 µM (HBZY-1 [14]): 90.6%

Structure (SMILES): COc1ccccc1NC(=O)/C(C#N)=C/c1ccc(OC)c(OC)c1
IC50 (HBZY-1 [1]): > 200 µM | Activity (HBZY-1 [25]): inactive

Structure (SMILES): COc1ccc(/C=C(\C#N)C(=O)Nc2ccccc2OC)cc1
IC50 (HBZY-1 [1]): > 200 µM | Activity (HBZY-1 [25]): inactive

Structure (SMILES): COC(=O)c1cc(OC)c2c(c1-c1c(/C=C(\C#N)C(=O)NCCc3ccc(OC)c(OC)c3)cc(OC)c3c1OCO3)OCO2
IC50 (HBZY-1 [1]): > 200 µM
